The source made the active and inactive calls.
How the values were obtained:
[1] = target: T1, Short transient receptor potential channel 4 (Mus musculus, UniProt Q9QUQ5); test: calcium entry via TRPC4 opening agents – cell-based, HEK293 TRPC4/mu-opioid, Fluo-4 calcium, dose response (AID 434937); type: functional
T1 sequence (Q9QUQ5 whole entry): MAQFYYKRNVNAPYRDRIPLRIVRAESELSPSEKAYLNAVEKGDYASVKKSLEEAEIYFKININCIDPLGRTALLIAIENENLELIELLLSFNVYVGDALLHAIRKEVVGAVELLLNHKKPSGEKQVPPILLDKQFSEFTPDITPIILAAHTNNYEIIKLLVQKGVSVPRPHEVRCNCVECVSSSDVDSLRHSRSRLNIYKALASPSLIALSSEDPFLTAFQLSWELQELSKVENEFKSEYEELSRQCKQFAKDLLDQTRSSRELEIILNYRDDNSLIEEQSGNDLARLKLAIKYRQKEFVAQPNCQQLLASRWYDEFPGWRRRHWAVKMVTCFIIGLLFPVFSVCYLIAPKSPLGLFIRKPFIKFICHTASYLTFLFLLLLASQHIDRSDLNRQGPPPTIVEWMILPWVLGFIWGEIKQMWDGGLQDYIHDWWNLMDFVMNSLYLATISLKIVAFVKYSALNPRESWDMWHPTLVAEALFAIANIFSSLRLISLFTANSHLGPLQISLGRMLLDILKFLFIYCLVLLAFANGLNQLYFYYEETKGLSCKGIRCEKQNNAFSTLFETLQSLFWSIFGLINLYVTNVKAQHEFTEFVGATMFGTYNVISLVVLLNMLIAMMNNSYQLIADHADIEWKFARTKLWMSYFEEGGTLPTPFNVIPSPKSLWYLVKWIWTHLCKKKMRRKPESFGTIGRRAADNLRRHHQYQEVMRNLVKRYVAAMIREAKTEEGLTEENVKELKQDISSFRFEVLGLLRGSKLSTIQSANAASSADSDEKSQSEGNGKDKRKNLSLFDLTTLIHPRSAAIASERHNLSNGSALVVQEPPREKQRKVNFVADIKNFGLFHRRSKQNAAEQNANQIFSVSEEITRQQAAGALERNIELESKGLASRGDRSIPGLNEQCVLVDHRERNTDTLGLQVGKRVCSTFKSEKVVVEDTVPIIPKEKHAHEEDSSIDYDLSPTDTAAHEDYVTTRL

[2] = target: T2, Kappa-type opioid receptor (Homo sapiens, UniProt P41145); test: SAR analysis of small molecule antagonists of the kappa opioid receptor via a luminescent beta-arrestin assay - Set 5. [Related pubchem assays (depositor defined):AID1778, AID1785]; type: functional
[3] = target: T2, Kappa-type opioid receptor; test: SAR analysis of small molecule antagonists of the kappa opioid receptor via a luminescent beta-arrestin assay - Set 4. [Related pubchem assays (depositor defined):AID1777, AID1778, AID1785, AID1786, AID1966, AID2133, AID2136, AID2285]; type: functional
Coagulation factor XII = target: T3, Coagulation factor XII (Homo sapiens, UniProt P00748); type: functional;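 note: activated factor XIIa alpha cleaving a fluorogenic AMC peptide substrate; inhibitor potency from loss of enzyme activity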
T3 sequence (P00748 whole entry): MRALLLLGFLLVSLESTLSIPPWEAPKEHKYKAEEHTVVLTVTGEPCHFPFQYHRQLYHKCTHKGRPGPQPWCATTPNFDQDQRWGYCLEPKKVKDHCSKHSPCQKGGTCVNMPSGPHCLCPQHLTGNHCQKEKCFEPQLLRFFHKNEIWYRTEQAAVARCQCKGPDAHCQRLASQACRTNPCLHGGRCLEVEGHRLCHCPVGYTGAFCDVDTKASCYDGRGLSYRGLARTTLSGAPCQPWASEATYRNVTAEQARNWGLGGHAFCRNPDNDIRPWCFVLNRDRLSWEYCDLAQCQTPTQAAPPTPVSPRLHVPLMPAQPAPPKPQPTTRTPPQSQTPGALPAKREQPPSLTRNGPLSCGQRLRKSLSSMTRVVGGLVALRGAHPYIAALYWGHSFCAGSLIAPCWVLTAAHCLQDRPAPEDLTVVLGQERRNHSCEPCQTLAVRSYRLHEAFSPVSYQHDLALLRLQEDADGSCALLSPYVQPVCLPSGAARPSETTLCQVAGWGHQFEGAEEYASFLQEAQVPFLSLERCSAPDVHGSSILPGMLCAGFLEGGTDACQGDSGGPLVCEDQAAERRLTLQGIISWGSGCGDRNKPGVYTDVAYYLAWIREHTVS

Cannabinoid receptor 2 [4] = target: T4, Cannabinoid receptor 2 (Homo sapiens, UniProt P34972); test: SAR analysis of agonists of the Cannabinoid Receptor 2 using an Image-Based Assay - Set 3. [Related pubchem assays (depositor defined):AID2013, AID2026]; type: functional
Cannabinoid receptor 1 [5] = target: T5, Cannabinoid receptor 1 (Homo sapiens, UniProt P21554); test: SAR analysis of antagonists of the Cannabinoid Receptor 1 using an Image-Based Assay - Set 4. [Related pubchem assays (depositor defined):AID2013, AID2026]; type: functional
Cannabinoid receptor 1 [6] = target: T5, Cannabinoid receptor 1; test: SAR analysis of agonists of the Cannabinoid Receptor 1 using an Image-Based Assay - Set 4. [Related pubchem assays (depositor defined):AID2013, AID2026]; type: functional
[7] = target: T6, G-protein coupled receptor 35 (Homo sapiens, UniProt Q9HC97); test: SAR analysis of Antagonists of the GPR35 Receptor using an Image-Based Assay - Set 6. [Related pubchem assays (depositor defined):AID2013, AID2026]; type: functional
[8] = target: T6, G-protein coupled receptor 35; test: SAR analysis of Agonists of the GPR35 Receptor using an Image-Based Assay - Set 4. [Related pubchem assays (depositor defined):AID2013, AID2026]; type: functional
Cannabinoid receptor 2 [9] = target: T4, Cannabinoid receptor 2; test: SAR analysis of antagonists of the Cannabinoid Receptor 2 using an Image-Based Assay - Set 3. [Related pubchem assays (depositor defined):AID2013, AID2026]; type: functional
[10] = target: G-protein coupled receptor 55 (Homo sapiens, UniProt Q9Y2T6); test: SAR Analysis of Selective Antagonists of GPR55 using an Image-Based Assay - Set 4. [Related pubchem assays (depositor defined):AID2013, AID2026]; type: functional;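 note: antagonism of response to 5 µM lysophosphatidylinositol agonist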
[11] = target: Intestinal-type alkaline phosphatase (Homo sapiens, UniProt P09923); test: human intestinal alkaline phosphatase activators, dose response, biochemical, luminescence, uHTS hits (AID 463120); type: functional
Insulin-degrading enzyme = target: T7, Insulin-degrading enzyme (Homo sapiens, UniProt P14735); test: Dose Response: Fluorescence polarization-based cell-based high throughput dose response assay for inhibitors of insulin-degrading enzyme (IDE). [Related pubchem assays: 434962 (Primary screen (IDE inhibitors in singlicate)), 449730 (Counterscreen (Cytotoxicity in triplicate)), 435028 (Confirmation (IDE inhibitors in triplicate)), 434984 (Summary …; type: functional
T7 sequence (P14735 whole entry): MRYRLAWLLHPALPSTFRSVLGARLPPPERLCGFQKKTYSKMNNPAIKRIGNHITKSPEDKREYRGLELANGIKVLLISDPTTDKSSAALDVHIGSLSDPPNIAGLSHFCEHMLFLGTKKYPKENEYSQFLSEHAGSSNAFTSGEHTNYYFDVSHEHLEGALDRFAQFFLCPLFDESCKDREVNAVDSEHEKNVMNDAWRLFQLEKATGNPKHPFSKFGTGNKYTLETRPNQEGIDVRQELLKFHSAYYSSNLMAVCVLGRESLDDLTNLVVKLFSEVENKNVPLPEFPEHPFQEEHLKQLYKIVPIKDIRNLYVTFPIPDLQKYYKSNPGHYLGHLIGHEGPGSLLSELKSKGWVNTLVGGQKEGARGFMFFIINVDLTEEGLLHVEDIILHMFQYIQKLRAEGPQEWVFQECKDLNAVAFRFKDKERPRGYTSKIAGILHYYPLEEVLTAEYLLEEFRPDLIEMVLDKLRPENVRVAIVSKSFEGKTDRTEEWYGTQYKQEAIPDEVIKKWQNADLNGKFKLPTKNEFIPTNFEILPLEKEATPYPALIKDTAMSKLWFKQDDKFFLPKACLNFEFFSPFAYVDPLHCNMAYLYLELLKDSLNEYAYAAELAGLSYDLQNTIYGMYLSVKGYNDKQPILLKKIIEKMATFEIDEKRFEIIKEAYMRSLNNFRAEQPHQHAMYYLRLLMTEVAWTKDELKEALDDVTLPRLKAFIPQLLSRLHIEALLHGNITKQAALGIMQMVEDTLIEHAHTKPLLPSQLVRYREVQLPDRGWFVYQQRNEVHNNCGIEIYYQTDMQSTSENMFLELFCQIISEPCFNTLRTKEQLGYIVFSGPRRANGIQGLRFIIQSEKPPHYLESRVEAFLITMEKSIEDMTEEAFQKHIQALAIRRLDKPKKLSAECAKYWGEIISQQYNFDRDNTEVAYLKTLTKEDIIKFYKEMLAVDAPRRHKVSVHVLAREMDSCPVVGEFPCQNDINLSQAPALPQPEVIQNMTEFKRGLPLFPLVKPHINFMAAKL

Ion channel NompC = Ion channel NompC (Danio rerio, UniProt Q7T1G6); test: Dose response cell-based high-throughput screening assay for agonists of the transient receptor potential channel N1 (TRPN1). [Related pubchem assays (depositor defined):AID1424, AID1448]; type: functional
[12] = target: Dual specificity tyrosine-phosphorylation-regulated kinase 1A (Rattus norvegicus, UniProt Q63470); type: biochemical, Homo sapiens
[13] = Counterscreen for IDE inhibitors: Luminescence-based cell-based high throughput dose response assay to identify compounds that are cytotoxic to HEK cells. [Related pubchem assays: 434962 (Primary screen (IDE inhibitors in singlicate)), 449730 (Counterscreen (Cytotoxicity in triplicate)), 435028 (Confirmation (IDE inhibitors in triplicate)) …; type: functional; conditions: HEK293
Aminopeptidase N = target: T8, Aminopeptidase N (Plasmodium falciparum FcB1/Columbia, UniProt O96935); test: malaria alanyl aminopeptidase activity blockers – biochemical, fluorogenic H-Leu-NHMec substrate, 1536-well (AID 1445); design: species or system Plasmodium falciparum 3D7, 3D7
T8 sequence (O96935 whole entry): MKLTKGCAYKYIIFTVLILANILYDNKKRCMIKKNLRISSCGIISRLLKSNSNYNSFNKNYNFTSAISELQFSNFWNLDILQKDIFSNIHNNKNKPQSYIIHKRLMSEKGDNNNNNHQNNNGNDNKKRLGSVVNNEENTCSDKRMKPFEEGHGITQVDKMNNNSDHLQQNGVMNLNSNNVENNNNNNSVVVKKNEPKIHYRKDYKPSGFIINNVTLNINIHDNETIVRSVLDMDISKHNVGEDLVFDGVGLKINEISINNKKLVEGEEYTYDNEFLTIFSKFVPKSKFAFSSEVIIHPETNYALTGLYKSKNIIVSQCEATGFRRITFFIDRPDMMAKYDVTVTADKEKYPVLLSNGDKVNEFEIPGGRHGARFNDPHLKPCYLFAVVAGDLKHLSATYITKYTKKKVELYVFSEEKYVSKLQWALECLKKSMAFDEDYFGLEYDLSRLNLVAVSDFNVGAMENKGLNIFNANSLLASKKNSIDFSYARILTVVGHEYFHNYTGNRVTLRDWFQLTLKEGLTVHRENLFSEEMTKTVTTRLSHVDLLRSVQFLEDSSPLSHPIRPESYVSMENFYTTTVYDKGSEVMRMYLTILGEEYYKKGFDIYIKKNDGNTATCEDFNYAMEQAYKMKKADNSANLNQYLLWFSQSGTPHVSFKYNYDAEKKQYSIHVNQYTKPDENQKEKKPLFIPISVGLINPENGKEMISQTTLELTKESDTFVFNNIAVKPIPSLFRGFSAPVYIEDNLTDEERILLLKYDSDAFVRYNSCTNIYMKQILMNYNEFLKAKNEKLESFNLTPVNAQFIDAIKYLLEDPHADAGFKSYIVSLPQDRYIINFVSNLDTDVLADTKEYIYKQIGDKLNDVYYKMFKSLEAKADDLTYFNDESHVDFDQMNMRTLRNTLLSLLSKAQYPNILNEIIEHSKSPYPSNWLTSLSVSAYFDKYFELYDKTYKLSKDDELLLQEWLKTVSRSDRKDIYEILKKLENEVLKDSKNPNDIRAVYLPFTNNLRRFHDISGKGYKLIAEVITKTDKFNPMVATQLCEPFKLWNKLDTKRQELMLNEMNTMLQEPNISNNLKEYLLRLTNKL

Mucolipin-3 = Mucolipin-3 (Homo sapiens, UniProt Q8TDD5); test: Fluorescence counterscreen assay for […] agonists: dose response cell-based high-throughput screening assay to identify agonists of the transient receptor potential channel ML3 (TRPML3). [Related pubchem assays: 1424, 1448 ]; type: functional
Mucolipin-3, sequence (Q8TDD5 whole entry): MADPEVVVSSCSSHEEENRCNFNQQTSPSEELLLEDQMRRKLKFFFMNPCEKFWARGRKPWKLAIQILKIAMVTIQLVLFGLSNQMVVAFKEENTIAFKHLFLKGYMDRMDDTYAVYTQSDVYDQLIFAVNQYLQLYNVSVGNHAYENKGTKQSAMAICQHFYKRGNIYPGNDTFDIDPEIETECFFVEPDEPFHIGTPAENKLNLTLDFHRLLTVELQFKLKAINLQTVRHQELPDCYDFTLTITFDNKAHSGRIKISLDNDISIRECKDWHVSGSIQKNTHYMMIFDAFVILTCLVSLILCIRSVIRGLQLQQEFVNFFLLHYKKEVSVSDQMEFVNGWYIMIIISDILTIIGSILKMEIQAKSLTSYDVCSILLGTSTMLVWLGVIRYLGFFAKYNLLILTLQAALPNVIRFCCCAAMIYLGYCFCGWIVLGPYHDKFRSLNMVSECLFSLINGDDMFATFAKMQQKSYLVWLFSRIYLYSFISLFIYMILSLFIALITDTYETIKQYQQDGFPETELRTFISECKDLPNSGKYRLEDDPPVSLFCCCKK

T5 sequence (P21554 whole entry): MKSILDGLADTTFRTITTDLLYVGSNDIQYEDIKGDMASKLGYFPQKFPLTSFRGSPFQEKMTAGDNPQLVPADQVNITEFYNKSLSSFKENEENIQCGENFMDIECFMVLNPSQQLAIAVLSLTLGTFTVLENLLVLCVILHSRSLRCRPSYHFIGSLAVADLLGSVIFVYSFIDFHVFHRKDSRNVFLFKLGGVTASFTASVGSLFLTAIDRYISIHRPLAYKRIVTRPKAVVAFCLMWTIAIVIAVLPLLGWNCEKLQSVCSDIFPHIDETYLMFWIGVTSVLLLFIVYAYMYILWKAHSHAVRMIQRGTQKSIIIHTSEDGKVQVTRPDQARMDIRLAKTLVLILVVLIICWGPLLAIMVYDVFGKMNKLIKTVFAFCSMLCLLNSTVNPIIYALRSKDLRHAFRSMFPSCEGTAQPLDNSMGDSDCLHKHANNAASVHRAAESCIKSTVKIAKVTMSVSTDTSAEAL
T2 sequence (P41145 whole entry): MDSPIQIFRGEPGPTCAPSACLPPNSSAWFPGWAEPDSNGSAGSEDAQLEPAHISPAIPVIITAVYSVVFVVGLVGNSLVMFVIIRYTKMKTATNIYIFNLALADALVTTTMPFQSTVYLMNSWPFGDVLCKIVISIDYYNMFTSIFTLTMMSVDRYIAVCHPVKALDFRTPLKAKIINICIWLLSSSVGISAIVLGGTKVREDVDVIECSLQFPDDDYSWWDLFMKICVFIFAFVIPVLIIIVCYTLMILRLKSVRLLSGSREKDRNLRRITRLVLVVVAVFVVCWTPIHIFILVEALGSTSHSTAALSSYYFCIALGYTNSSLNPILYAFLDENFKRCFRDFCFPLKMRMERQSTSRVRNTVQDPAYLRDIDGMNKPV
T4 sequence (P34972 whole entry): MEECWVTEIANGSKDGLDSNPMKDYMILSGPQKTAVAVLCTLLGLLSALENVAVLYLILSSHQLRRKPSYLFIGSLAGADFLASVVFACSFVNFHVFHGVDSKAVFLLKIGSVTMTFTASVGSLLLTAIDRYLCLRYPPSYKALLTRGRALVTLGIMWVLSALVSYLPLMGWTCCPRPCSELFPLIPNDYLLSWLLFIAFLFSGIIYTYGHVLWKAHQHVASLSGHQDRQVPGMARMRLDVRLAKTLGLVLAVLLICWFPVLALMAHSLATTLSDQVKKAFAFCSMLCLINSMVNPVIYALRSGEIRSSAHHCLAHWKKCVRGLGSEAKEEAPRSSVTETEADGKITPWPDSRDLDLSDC
T6 sequence (Q9HC97 whole entry): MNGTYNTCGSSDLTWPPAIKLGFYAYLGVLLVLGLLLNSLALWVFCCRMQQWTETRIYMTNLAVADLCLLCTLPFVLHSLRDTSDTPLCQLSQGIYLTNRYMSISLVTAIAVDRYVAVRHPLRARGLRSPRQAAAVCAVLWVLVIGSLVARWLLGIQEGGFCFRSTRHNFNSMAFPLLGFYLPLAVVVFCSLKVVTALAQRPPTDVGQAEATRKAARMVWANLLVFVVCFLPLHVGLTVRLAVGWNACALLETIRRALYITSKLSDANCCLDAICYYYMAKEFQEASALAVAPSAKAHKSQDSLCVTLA
G-protein coupled receptor 55, sequence (Q9Y2T6 whole entry): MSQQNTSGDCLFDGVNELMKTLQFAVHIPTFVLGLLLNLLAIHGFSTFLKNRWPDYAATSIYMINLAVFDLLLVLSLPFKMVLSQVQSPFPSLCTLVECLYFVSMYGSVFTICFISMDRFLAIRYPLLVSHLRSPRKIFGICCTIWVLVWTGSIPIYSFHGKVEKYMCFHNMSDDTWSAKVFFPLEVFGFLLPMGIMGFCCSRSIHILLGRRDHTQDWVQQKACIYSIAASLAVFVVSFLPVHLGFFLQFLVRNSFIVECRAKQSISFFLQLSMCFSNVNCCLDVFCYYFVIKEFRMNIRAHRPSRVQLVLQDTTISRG
Intestinal-type alkaline phosphatase, sequence (P09923 whole entry): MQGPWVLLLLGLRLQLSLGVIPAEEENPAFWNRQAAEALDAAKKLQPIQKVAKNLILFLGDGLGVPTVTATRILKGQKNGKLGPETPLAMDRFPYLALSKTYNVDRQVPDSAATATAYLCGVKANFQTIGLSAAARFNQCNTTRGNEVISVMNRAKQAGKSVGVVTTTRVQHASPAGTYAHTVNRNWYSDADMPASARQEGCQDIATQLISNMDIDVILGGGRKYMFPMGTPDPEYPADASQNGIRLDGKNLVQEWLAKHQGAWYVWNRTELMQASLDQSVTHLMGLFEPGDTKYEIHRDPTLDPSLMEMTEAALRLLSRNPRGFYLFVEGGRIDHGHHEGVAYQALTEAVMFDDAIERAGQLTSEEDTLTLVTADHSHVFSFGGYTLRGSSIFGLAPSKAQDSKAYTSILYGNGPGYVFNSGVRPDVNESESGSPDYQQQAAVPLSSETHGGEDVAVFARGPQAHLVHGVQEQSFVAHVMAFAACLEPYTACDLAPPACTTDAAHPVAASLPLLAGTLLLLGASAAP
Ion channel NompC, sequence (Q7T1G6 whole entry): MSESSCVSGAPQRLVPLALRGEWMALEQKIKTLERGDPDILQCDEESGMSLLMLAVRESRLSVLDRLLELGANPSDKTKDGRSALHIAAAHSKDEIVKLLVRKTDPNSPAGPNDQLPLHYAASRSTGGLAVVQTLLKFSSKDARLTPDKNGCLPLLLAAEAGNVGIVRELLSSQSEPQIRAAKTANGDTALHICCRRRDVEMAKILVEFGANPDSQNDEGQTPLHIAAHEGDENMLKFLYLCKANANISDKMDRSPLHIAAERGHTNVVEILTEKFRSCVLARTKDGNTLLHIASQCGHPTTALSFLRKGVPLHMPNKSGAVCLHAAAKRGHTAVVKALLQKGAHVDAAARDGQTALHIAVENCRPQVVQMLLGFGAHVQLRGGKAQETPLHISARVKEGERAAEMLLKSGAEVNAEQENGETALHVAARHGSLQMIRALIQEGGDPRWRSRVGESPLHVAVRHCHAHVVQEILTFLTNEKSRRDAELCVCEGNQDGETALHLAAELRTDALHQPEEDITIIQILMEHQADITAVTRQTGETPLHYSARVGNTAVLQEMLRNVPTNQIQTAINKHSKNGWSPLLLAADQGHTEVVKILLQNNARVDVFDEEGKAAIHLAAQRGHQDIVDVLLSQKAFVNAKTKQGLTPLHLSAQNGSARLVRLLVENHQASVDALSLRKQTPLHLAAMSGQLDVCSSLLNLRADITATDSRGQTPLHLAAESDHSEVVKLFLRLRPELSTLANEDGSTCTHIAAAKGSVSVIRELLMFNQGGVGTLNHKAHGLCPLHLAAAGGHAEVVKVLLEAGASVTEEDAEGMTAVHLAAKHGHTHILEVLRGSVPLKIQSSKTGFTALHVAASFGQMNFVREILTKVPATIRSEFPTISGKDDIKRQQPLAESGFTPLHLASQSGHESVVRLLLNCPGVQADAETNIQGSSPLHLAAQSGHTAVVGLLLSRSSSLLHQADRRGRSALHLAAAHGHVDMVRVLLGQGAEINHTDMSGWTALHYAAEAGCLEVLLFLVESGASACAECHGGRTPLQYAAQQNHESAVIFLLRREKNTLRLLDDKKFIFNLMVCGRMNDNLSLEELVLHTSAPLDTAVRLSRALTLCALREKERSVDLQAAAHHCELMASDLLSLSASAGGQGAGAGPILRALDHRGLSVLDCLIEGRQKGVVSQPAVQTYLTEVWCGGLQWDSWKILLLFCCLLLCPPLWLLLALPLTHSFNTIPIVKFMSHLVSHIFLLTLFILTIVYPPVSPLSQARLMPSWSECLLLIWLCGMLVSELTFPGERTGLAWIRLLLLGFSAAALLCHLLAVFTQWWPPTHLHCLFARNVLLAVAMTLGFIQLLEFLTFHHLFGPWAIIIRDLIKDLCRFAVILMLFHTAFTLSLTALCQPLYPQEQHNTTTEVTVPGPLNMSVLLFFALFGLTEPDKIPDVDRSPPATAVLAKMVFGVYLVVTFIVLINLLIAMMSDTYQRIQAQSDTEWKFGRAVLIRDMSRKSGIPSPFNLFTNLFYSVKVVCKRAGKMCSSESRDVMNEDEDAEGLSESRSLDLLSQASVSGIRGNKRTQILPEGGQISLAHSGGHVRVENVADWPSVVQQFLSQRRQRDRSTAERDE

O=C(Cn1c(-c2ccccc2)c[n+]2ccsc12)c1ccc(Br)cc1
EC50 [1]: 0.668 µM (active)

CC(C)N(CCNC(=O)c1ccc(CNS(=O)(=O)Cc2ccccc2)cc1)Cc1ccccc1
IC50 [2]: 3.5 µM (active) | IC50 [3]: 10.3 µM (inactive)

COc1cc(NC(=O)c2cc3nc(C4CC4)cc(C(F)(F)F)n3n2)c(OC)cc1Cl
IC50 (Coagulation factor XII): > 50 µM (inactive)

Cc1nc(N2CCN(C(=O)c3ccc4c(c3)nc(C)n4C)CC2)c2c3c(sc2n1)CC(C)CC3 (centres undefined)
EC50 (Cannabinoid receptor 2 [4]): 26.8 µM (inactive) | IC50 (Cannabinoid receptor 1 [5]): 19.6 µM (inactive) | EC50 (Cannabinoid receptor 1 [6]): > 32 µM (inactive) | IC50 [7]: > 32 µM (inactive) | EC50 [8]: > 32 µM (inactive) | IC50 (Cannabinoid receptor 2 [9]): > 32 µM (inactive) | IC50 [10]: > 32 µM (inactive)

O=C(Cn1c(=O)c2cccn2c2cc(Br)cnc21)NCCCN1CCN(c2ccccc2)CC1
IC50 [2]: > 20 µM (inactive) | IC50 [3]: > 20 µM (inactive)

Cc1c(C(=O)C2=C(O)C(=O)N(CCN3CCOCC3)C2c2cccs2)cnn1-c1ccccc1 (centres undefined)
IC50 (Coagulation factor XII): > 50 µM (inactive)

CCCN(CCC)CCCNC(=O)CNC(=O)c1nn(-c2ccc(OC)cc2)c(=O)c2ccccc12
EC50 [1]: 3.76 µM (active)

O=C(N/N=C/c1cccc([N+](=O)[O-])c1)c1nc(O)c2ccccc2n1
EC50 [11]: 8.34 µM (active)

COc1ccc(C2(C(=O)N3CCC(n4nc(-c5ccccc5)oc4=O)CC3)CC2)cc1
EC50 (Cannabinoid receptor 2 [4]): > 32 µM (inactive) | IC50 (Cannabinoid receptor 1 [5]): 7.11 µM (active) | EC50 (Cannabinoid receptor 1 [6]): > 32 µM (inactive) | IC50 [7]: > 32 µM (inactive) | EC50 [8]: > 32 µM (inactive) | IC50 (Cannabinoid receptor 2 [9]): > 32 µM (inactive) | IC50 [10]: 9.55 µM (active)

O=C(O)c1cccc(-c2ccc(/C=N/Nc3ccc([N+](=O)[O-])cc3)o2)c1
IC50 (Insulin-degrading enzyme): > 55.9 µM (not active) | EC50 (Ion channel NompC): 12 µM (inactive) | AC50 [12]: 6.38 µM (active) | IC50 [13]: > 55.6 µM (not active) | IC50 (Aminopeptidase N): 27.3 µM (active) | EC50 (Mucolipin-3): > 29.9 µM (not active)

From ChEMBL document CHEMBL1201862, “PubChem BioAssay data set” (2004)
